Data reported in patent US11078216B2, “Bisaryl amides as NRF2 activators” (GLAXOSMITHKLINE INTELLECTUAL PROPERTY DEVELOPMENT LIMITED, priority 2016, dated 2021).

System: NRF2 (NQO1 activity as marker for NRF2 activation), BEAS-2B cells
Assay: BEAS-2B NQO1 MTT Assay
Format: cell-based
Conditions: Homo sapiens, EC50 of NQO1 specific activity induction, 48 hours incubation, read-out: EC50
Procedure, shortened: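 BEAS-2B cells were exposed to compound for 48 h at 37° C, 5% CO2, then lysed. NQO1 activity was measured kinetically by MTT reduction at 570 nm over 30 minutes; EC50 came from 3-parameter fit of Delta OD/min versus log concentration.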

For CC[C@@H]1CN(Cc2cc([C@@H](c3ccc4c(nnn4CC)c3C)C(C)(C)NC(=O)CC(=O)O)ccc2C)S(=O)(=O)c2ccccc2O1 [Example 142, 3-(((S)-1-(3-(((R)-4-Ethyl-1,1-dioxido-3,4-dihydro-2H-benzo[b][1,4,5]oxathiazepin-2-yl)methyl)-4-methylphenyl)-1-(1-ethyl-4-methyl-1H-benzo[d][1,2,3]triazol-5-yl)-2-methylpropan-2-yl)amino)-3-oxopropanoic acid], the EC50 was 10 to 100 nM.

CC[C@@H]1CN(Cc2cc([C@@H](c3ccc4c(nnn4CC)c3C)C(C)(C)NC(=O)CS(C)(=O)=O)ccc2C)S(=O)(=O)c2ccccc2O1 [Example 143, N-((S)-1-(3-(((R)-4-Ethyl-1,1-dioxido-3,4-dihydro-2H-benzo[b][1,4,5]oxathiazepin-2-yl)methyl)-4-methylphenyl)-1-(1-ethyl-4-methyl-1H-benzo[d][1,2,3]triazol-5-yl)-2-methylpropan-2-yl)-2-(methylsulfonyl)acetamide] was tested, and the EC50 was 10 to 100 nM.

With CC[C@@H]1CN(Cc2cc([C@@H](c3ccc4c(nnn4CC)c3C)C(C)(C)NC(=O)CC#N)ccc2C)S(=O)(=O)c2ccccc2O1 [Example 144, 2-Cyano-N-((S)-1-(3-(((R)-4-ethyl-1,1-dioxido-3,4-dihydro-2H-benzo[b][1,4,5]oxathiazepin-2-yl)methyl)-4-methylphenyl)-1-(1-ethyl-4-methyl-1H-benzo[d][1,2,3]triazol-5-yl)-2-methylpropan-2-yl)acetamide] the EC50 was 10 to 100 nM.

Compound CC[C@@H]1CN(Cc2cc([C@@H](c3ccc4c(nnn4CC)c3C)C(C)(C)NC(=O)c3cnc(OC)nc3)ccc2C)S(=O)(=O)c2ccccc2O1 [Example 145, N-((S)-1-(3-(((R)-4-Ethyl-1,1-dioxido-3,4-dihydro-2H-benzo[b][1,4,5]oxathiazepin-2-yl)methyl)-4-methylphenyl)-1-(1-ethyl-4-methyl-1H-benzo[d][1,2,3]triazol-5-yl)-2-methylpropan-2-yl)-2-methoxypyrimidine-5-carboxamide] has an EC50 of 1 to 10 nM.

CC[C@@H]1CN(Cc2cc([C@@H](c3ccc4c(nnn4CC)c3C)C(C)(C)NC(=O)c3cncnc3)ccc2C)S(=O)(=O)c2ccccc2O1 [Example 146, N-((S)-1-(3-(((R)-4-Ethyl-1,1-dioxido-3,4-dihydro-2H-benzo[b][1,4,5]oxathiazepin-2-yl)methyl)-4-methylphenyl)-1-(1-ethyl-4-methyl-1H-benzo[d][1,2,3]triazol-5-yl)-2-methylpropan-2-yl)pyrimidine-5-carboxamide] showed an EC50 of 10 to 100 nM.

With CC[C@@H]1CN(Cc2cc([C@@H](c3ccc4c(nnn4CC)c3C)C(C)(C)NC(=O)c3cnc(SC)nc3)ccc2C)S(=O)(=O)c2ccccc2O1 [Example 147, N-((S)-1-(3-(((R)-4-Ethyl-1,1-dioxido-3,4-dihydro-2H-benzo[b][1,4,5]oxathiazepin-2-yl)methyl)-4-methylphenyl)-1-(1-ethyl-4-methyl-1H-benzo[d][1,2,3]triazol-5-yl)-2-methylpropan-2-yl)-2-(methylthio)pyrimidine-5-carboxamide] the EC50 was 10 to 100 nM.

For CC[C@@H]1CN(Cc2cc([C@@H](c3ccc4c(nnn4CC)c3C)C(C)(C)NC(=O)c3c[nH]cn3)ccc2C)S(=O)(=O)c2ccccc2O1 [Example 148, N-((S)-1-(3-(((R)-4-Ethyl-1,1-dioxido-3,4-dihydro-2H-benzo[b][1,4,5]oxathiazepin-2-yl)methyl)-4-methylphenyl)-1-(1-ethyl-4-methyl-1H-benzo[d][1,2,3]triazol-5-yl)-2-methylpropan-2-yl)-1H-imidazole-4-carboxamide], the EC50 was 100 to 1000 nM.

Work on CC[C@@H]1CN(Cc2cc([C@@H](c3ccc4c(nnn4CC)c3C)C(C)(C)NC(=O)c3cscn3)ccc2C)S(=O)(=O)c2ccccc2O1 [Example 149, N-((S)-1-(3-(((R)-4-Ethyl-1,1-dioxido-3,4-dihydro-2H-benzo[b][1,4,5]oxathiazepin-2-yl)methyl)-4-methylphenyl)-1-(1-ethyl-4-methyl-1H-benzo[d][1,2,3]triazol-5-yl)-2-methylpropan-2-yl)thiazole-4-carboxamide] yielded an EC50 of 10 to 100 nM.

CC[C@@H]1CN(Cc2cc([C@@H](c3ccc4c(nnn4CC)c3C)C(C)(C)NC(=O)c3cc[nH]n3)ccc2C)S(=O)(=O)c2ccccc2O1 [Example 150, N-((S)-1-(3-(((R)-4-Ethyl-1,1-dioxido-3,4-dihydro-2H-benzo[b][1,4,5]oxathiazepin-2-yl)methyl)-4-methylphenyl)-1-(1-ethyl-4-methyl-1H-benzo[d][1,2,3]triazol-5-yl)-2-methylpropan-2-yl)-1H-pyrazole-3-carboxamide] was tested, and the EC50 was 10 to 100 nM.

In the case of CC[C@@H]1CN(Cc2cc([C@@H](c3ccc4c(nnn4CC)c3C)C(C)(C)NC(=O)c3cocn3)ccc2C)S(=O)(=O)c2ccccc2O1 [Example 151, N-((S)-1-(3-(((R)-4-Ethyl-1,1-dioxido-3,4-dihydro-2H-benzo[b][1,4,5]oxathiazepin-2-yl)methyl)-4-methylphenyl)-1-(1-ethyl-4-methyl-1H-benzo[d][1,2,3]triazol-5-yl)-2-methylpropan-2-yl)oxazole-4-carboxamide], the EC50 is reported as 10 to 100 nM.

CC[C@@H]1CN(Cc2cc([C@@H](c3ccc4c(nnn4CC)c3C)C(C)(C)NC(=O)c3ccno3)ccc2C)S(=O)(=O)c2ccccc2O1 [Example 152, N-((S)-1-(3-(((R)-4-Ethyl-1,1-dioxido-3,4-dihydro-2H-benzo[b][1,4,5]oxathiazepin-2-yl)methyl)-4-methylphenyl)-1-(1-ethyl-4-methyl-1H-benzo[d][1,2,3]triazol-5-yl)-2-methylpropan-2-yl)isoxazole-5-carboxamide] was tested, and the EC50 was 1 to 10 nM.

CC[C@@H]1CN(Cc2cc([C@@H](c3ccc4c(nnn4CC)c3C)C(C)(C)NC(=O)c3ccon3)ccc2C)S(=O)(=O)c2ccccc2O1 [Example 153, N-((S)-1-(3-(((R)-4-Ethyl-1,1-dioxido-3,4-dihydro-2H-benzo[b][1,4,5]oxathiazepin-2-yl)methyl)-4-methylphenyl)-1-(1-ethyl-4-methyl-1H-benzo[d][1,2,3]triazol-5-yl)-2-methylpropan-2-yl)isoxazole-3-carboxamide] was tested, and the EC50 was 10 to 100 nM.

CC[C@@H]1CN(Cc2cc([C@@H](c3ccc4c(nnn4CC)c3C)C(C)(C)NC(=O)c3cncc(F)c3)ccc2C)S(=O)(=O)c2ccccc2O1 [Example 154, N-((S)-1-(3-(((R)-4-Ethyl-1,1-dioxido-3,4-dihydro-2H-benzo[b][1,4,5]oxathiazepin-2-yl)methyl)-4-methylphenyl)-1-(1-ethyl-4-methyl-1H-benzo[d][1,2,3]triazol-5-yl)-2-methylpropan-2-yl)-5-fluoronicotinamide] gave an EC50 of 10 to 100 nM.

For CC[C@@H]1CN(Cc2cc([C@@H](c3ccc4c(nnn4CC)c3C)C(C)(C)NC(=O)c3cncc(C(F)(F)F)c3)ccc2C)S(=O)(=O)c2ccccc2O1 [Example 155, N-((S)-1-(3-(((R)-4-Ethyl-1,1-dioxido-3,4-dihydro-2H-benzo[b][1,4,5]oxathiazepin-2-yl)methyl)-4-methylphenyl)-1-(1-ethyl-4-methyl-1H-benzo[d][1,2,3]triazol-5-yl)-2-methylpropan-2-yl)-5-(trifluoromethyl) nicotinamide], the EC50 was 10 to 100 nM.

CC[C@@H]1CN(Cc2cc([C@@H](c3ccc4c(nnn4CC)c3C)C(C)(C)NC(=O)c3ccc(=O)[nH]c3)ccc2C)S(=O)(=O)c2ccccc2O1 [Example 156, N-((S)-1-(3-(((R)-4-Ethyl-1,1-dioxido-3,4-dihydro-2H-benzo[b][1,4,5]oxathiazepin-2-yl)methyl)-4-methylphenyl)-1-(1-ethyl-4-methyl-1H-benzo[d][1,2,3]triazol-5-yl)-2-methylpropan-2-yl)-6-oxo-1,6-dihydropyridine-3-carboxamide] was tested, and the EC50 was 100 to 1000 nM.

CC[C@@H]1CN(Cc2cc([C@@H](c3ccc4c(nnn4CC)c3C)C(C)(C)NC(=O)c3cnc(S(C)(=O)=O)nc3)ccc2C)S(=O)(=O)c2ccccc2O1 [Example 157, N—((S)-1-(3-(((R)-4-Ethyl-1,1-dioxido-3,4-dihydro-2H-benzo[b][1,4,5]oxathiazepin-2-yl)methyl)-4-methylphenyl)-1-(1-ethyl-4-methyl-1H-benzo[d][1,2,3]triazol-5-yl)-2-methylpropan-2-yl)-2-(methylsulfonyl)pyrimidine-5-carboxamide] gave an EC50 of 100 to 1000 nM.

CC[C@@H]1CN(Cc2cc([C@@H](c3ccc4c(nnn4CC)c3C)C(C)(C)NC(=O)c3cnc(N4CCC4)nc3)ccc2C)S(=O)(=O)c2ccccc2O1 [Example 158, 2-(Azetidin-1-yl)-N—((S)-1-(3-(((R)-4-ethyl-1,1-dioxido-3,4-dihydro-2H-benzo[b][1,4,5]oxathiazepin-2-yl)methyl)-4-methylphenyl)-1-(1-ethyl-4-methyl-1H-benzo[d][1,2,3]triazol-5-yl)-2-methylpropan-2-yl)pyrimidine-5-carboxamide] gave an EC50 of 10 to 100 nM.

For CC[C@@H]1CN(Cc2cc([C@@H](c3ccc4c(nnn4CC)c3C)C(C)(C)NC(=O)c3cnc(N4CCCC4)nc3)ccc2C)S(=O)(=O)c2ccccc2O1 [Example 159, N-((S)-1-(3-(((R)-4-Ethyl-1,1-dioxido-3,4-dihydro-2H-benzo[b][1,4,5]oxathiazepin-2-yl)methyl)-4-methylphenyl)-1-(1-ethyl-4-methyl-1H-benzo[d][1,2,3]triazol-5-yl)-2-methylpropan-2-yl)-2-(pyrrolidin-1-yl)pyrimidine-5-carboxamide], the EC50 was 10 to 100 nM.

For CC[C@@H]1CN(Cc2cc([C@@H](c3ccc4c(nnn4CC)c3C)C(C)(C)NC(=O)c3cnc(OCCCOC)nc3)ccc2C)S(=O)(=O)c2ccccc2O1 [Example 160, N-((S)-1-(3-(((R)-4-Ethyl-1,1-dioxido-3,4-dihydro-2H-benzo[b][1,4,5]oxathiazepin-2-yl)methyl)-4-methylphenyl)-1-(1-ethyl-4-methyl-1H-benzo[d][1,2,3]triazol-5-yl)-2-methylpropan-2-yl)-2-(3-methoxypropoxy)pyrimidine-5-carboxamide], the EC50 was 1 to 10 nM.
